Here are results for 43 compounds from ChEMBL document CHEMBL2385071, “Synthesis and biological investigation of coumarin piperazine (piperidine) derivatives as potential multireceptor atypical antipsychotics” (J Med Chem, 2013).

For data set [1], the target named is 5-hydroxytryptamine receptor 2A (Rattus norvegicus, UniProt P14842). The data set is described as follows: Displacement of [3H]ketanserin from 5HT2A receptor in rat cerebral cortex after 15 mins by liquid scintillation counting analysis. Type of data set: tissue-based. (In general: In a radioligand displacement assay an active substance lowers the binding of a labelled ligand.)

The target in data set [2] is D(2) dopamine receptor (Rattus norvegicus, UniProt P61169).
Data set [3] addresses T1, 5-hydroxytryptamine receptor 1A (Rattus norvegicus, UniProt P19327).
T1 sequence (P19327 whole entry): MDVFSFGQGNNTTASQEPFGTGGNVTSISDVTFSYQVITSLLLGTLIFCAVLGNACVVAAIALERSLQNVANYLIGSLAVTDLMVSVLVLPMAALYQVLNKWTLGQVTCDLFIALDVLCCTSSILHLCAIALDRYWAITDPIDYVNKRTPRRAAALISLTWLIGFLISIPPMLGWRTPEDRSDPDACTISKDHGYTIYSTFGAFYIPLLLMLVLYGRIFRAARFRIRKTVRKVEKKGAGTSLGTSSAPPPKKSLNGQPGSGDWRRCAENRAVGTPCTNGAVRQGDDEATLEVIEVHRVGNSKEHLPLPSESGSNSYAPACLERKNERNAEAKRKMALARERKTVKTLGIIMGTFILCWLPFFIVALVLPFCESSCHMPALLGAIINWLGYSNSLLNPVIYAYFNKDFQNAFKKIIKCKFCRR
The data set is described as follows: biochemical.
Description: Displacement of [3H]8-OH-DPAT from 5HT1A receptor in rat cerebral cortex after 30 mins by liquid scintillation counting analysis

The target in data set [4] is T2, 5-hydroxytryptamine receptor 2A (Homo sapiens, UniProt P28223). The data set is described as follows: Agonist activity at 5HT2A receptor (unknown origin) expressed in CHOK1 cells coexpressing Galpha15 at 10 uM by FLIPR assay relative to control. Type of data set: cell-based. Conditions: CHO-K1.
Data set [5] relates to Mus musculus. Put plainly: Toxicity in po dosed mouse assessed as induction of catalepsy. The data set is classed as organism-based. The settings on record: in vivo.
Data set [6] in a line: in vivo. Conditions: mouse, po.
Data set [7] in a line: in vivo. Conditions: mouse, po. This is another data set of the same source.
Description: Therapeutic Index, ratio of ED50 for catalepsy in mouse to ED50 for antipsychotic activity in po dosed mouse assessed as reduction in apomorphine-induced climbing behavior
For data set [8], the species on record is Mus musculus. The data set is described as follows: animal or person. The settings on record: po.
The species named for data set [9] is Mus musculus. The data set is described as follows: animal or person. The settings on record: po. The source holds these as a separate data set.
Description: Antipsychotic activity in po dosed mouse assessed as reduction in apomorphine-induced climbing behavior administered for 30 mins prior to apomorphine-challenge measured at 10 to 30 mins post-dose
In data set [10] the target is T3, D(2) dopamine receptor (Homo sapiens, UniProt P14416). The data set is described as follows: Antagonist activity at dopamine D2 receptor (unknown origin) expressed in CHOK1 cells coexpressing Galpha15 assessed as inhibition of agonist-induced response at 10 uM incubated for 60 mins in incubator followed by 15 mins at room temperature by FLIPR assay relative to control. The data set is classed as cell-based. Conditions: CHO-K1.

Data set [11] has as its target T3, D(2) dopamine receptor.
The target in data set [12] is T3, D(2) dopamine receptor. Put plainly: Agonist activity at dopamine D2 receptor (unknown origin) expressed in CHOK1 cells coexpressing Galpha15 at 10 uM by FLIPR assay relative to control. Type of data set: cell-based. Conditions: CHO-K1.
Data set [13] concerns the target T2, 5-hydroxytryptamine receptor 2A. Put plainly: Antagonist activity at 5HT2A receptor (unknown origin) expressed in CHOK1 cells coexpressing Galpha15 assessed as inhibition of agonist-induced response at 10 uM incubated for 60 mins in incubator followed by 15 mins at room temperature by FLIPR assay relative to control. Type of data set: cell-based. The settings on record: CHO-K1.

By Ki is commonly meant the dissociation constant of the complex between target and ligand, obtained from inhibition or displacement. The low end stands for a stronger hold on the target, the high end for a looser hold on the target. By ED50 is commonly meant the dose that gives a 50% effect, or the effect in half of the subjects. For orientation: inhibition means the drop in the measured response relative to a control, in per cent. What is called IC50 is the concentration needed to halve the response being measured. Low values mean higher potency, high ones lower potency.

Chain of 5-hydroxytryptamine receptor 2A (Rattus norvegicus, UniProt P14842) (P14842 whole entry): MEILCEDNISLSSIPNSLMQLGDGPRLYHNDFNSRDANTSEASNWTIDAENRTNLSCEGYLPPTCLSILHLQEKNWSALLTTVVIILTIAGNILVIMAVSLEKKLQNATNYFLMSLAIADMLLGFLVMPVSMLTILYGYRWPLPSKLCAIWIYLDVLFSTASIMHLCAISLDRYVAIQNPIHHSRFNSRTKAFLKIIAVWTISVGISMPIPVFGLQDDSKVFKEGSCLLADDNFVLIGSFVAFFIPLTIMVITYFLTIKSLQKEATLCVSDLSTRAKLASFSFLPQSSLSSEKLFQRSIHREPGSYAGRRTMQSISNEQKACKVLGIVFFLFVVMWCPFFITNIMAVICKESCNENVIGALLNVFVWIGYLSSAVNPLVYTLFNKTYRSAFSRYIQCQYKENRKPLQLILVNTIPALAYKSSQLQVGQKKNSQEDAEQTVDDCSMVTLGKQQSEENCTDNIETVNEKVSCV
Chain of D(2) dopamine receptor (Rattus norvegicus, UniProt P61169) (P61169 whole entry): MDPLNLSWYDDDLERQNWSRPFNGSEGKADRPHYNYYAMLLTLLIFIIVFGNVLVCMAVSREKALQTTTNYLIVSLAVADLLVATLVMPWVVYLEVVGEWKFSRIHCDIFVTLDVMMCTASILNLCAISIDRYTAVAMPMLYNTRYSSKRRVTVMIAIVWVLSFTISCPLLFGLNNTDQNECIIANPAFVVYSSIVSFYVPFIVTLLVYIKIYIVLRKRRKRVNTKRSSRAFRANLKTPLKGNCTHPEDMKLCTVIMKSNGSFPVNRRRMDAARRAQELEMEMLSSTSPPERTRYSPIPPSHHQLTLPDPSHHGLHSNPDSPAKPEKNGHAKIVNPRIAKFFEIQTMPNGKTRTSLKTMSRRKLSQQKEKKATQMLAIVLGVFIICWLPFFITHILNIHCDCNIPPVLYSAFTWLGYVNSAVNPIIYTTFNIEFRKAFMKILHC
T3 sequence (P14416 whole entry): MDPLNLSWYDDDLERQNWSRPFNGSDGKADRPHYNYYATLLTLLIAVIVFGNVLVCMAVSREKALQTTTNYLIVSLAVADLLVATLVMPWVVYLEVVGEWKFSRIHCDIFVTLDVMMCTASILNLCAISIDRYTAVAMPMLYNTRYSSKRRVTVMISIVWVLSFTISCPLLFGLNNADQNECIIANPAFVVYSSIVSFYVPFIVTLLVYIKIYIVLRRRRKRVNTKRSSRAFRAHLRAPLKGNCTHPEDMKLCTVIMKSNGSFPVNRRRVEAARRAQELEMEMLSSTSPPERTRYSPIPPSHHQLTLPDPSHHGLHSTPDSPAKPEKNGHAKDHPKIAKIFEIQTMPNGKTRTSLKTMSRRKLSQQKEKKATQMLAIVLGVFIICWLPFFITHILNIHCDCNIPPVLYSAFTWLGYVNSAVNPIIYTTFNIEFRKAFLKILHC
T2 sequence (P28223 whole entry): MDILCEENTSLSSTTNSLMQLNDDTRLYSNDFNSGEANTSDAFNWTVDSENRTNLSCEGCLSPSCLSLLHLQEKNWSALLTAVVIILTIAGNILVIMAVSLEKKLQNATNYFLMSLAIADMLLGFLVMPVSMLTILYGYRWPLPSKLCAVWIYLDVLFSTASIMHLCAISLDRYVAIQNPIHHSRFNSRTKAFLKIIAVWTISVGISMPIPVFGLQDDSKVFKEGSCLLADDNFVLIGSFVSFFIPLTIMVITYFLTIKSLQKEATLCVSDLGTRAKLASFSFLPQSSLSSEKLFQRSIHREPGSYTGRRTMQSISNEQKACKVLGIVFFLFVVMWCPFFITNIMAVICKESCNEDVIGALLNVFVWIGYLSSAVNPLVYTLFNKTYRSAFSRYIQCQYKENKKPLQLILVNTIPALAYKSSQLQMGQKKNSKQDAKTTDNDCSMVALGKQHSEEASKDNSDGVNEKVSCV

In the case of `O=c1cc(C(F)(F)F)c2ccc(OCCCCN3CCC(c4noc5cc(F)ccc45)CC3)cc2o1`, the inhibition constant (Ki) in data set [1] was found to be 228 nM; in data set [2], 3010 nM; in data set [3] it was 42.9 nM.
In the case of `O=C1CC(c2ccccc2)c2ccc(OCCCCN3CCC(c4noc5cc(F)ccc45)CC3)cc2O1` (configuration not stated), the inhibition constant Ki was 559 nM in data set [1], 515 nM in data set [2] and > 10000 nM in data set [3].
The like results for `CCc1cc(=O)oc2cc(OCCCCN3CCC(c4noc5cc(F)ccc45)CC3)ccc12` were, in that order, 51.3 nM, 1930 nM and 1470 nM.
For `COc1ccccc1N1CCN(CCCCOc2ccc3c(-c4ccccc4)cc(=O)oc3c2)CC1`, in that order: > 10000 nM, > 10000 nM and > 10000 nM.
On to `O=c1cc(CO)c2ccc(OCCCCN3CCC(c4noc5cc(F)ccc45)CC3)cc2o1`, for which the results for the Ki in data set [1], in data set [2] and in [3] were > 10000 nM, > 10000 nM and 2160 nM, respectively.
Turning to `COc1ccc(N2CCN(CCCCOc3ccc4c(C)cc(=O)oc4c3)CC2)cc1`, the Ki in [1] amounted to 1010 nM; in data set [2], 412 nM; in data set [3] it was 530 nM.
The like results for `Cc1cc(=O)oc2cc(OC/C=C/CN3CCC(c4noc5cc(F)ccc45)CC3)ccc12` were, in that order, 0.5 nM, 17.1 nM and 44.5 nM.
With `O=c1cc(-c2ccccc2)c2ccc(OCC(O)CN3CCC(c4noc5cc(F)ccc45)CC3)cc2o1` (configuration not stated), the results for the Ki in data set [1], in [2] and in data set [3] were 1570 nM, 987 nM and 692 nM, respectively.
For `CCCc1cc(=O)oc2cc(OCCCCN3CCC(c4noc5cc(F)ccc45)CC3)ccc12`, in that order: 30.8 nM, 3.9 nM and 410 nM.
The like results for `Cc1cc(OCCCCN2CCC(c3noc4cc(F)ccc34)CC2)cc2oc(=O)cc(C)c12` were, in that order, 549 nM, 459 nM and 18.9 nM.
For `Cc1cc(=O)oc2cc(OCCCCCN3CCC(c4noc5cc(F)ccc45)CC3)ccc12`, in that order: 306 nM, 123 nM and 1720 nM.
For the compound `Cc1cc(=O)oc2cc(OCCCCN3CCN(c4nsc5ccccc45)CC3)ccc12`, the Ki in data set [1] is 104 nM; in data set [2] it was 176 nM; in data set [3] it was 113 nM.
Take `COc1ccccc1N1CCN(CCCCOc2ccc3c(CO)cc(=O)oc3c2)CC1`: the Ki in [1], in [2] and in [3] was > 10000 nM in each case.
`NCCc1c[nH]c2ccc(O)cc12` had an Activity in [4] of 100%.
For the compound `O=c1cc(C2CC2)c2ccc(OCCCCN3CCC(c4noc5cc(F)ccc45)CC3)cc2o1`, the inhibition constant (Ki) in data set [1], in [2] and in data set [3] was > 10000 nM throughout.
As for `O=C(CCCN1CCC(O)(c2ccc(Cl)cc2)CC1)c1ccc(F)cc1` [HALOPERIDOL], the ED50 in data set [5] is 0.22 mg/kg; in [8], 0.19 mg/kg; in [9] it was 0.09 mg/kg. In addition, the figures for the selectivity ratio in [6] and in data set [7] were 1.16 and 2.44, respectively.
`COc1ccccc1N1CCN(CCCCOc2ccc3c(C)cc(=O)oc3c2C)CC1`: the Ki in [1] is 941 nM; in data set [2], 844 nM; in data set [3], 112 nM.
The like results for `Cc1cc(=O)oc2cc(OCCCCN3CCC(c4nc5ccccc5o4)CC3)ccc12` were, in that order, 1550 nM, > 10000 nM and 1390 nM.
Take `Cc1cc(=O)oc2cc(OCCCN3CCC(c4noc5cc(F)ccc45)CC3)ccc12`: the Ki came to 140 nM in [1], 116 nM in [2] and 328 nM in [3].
Turning to `COc1ccccc1N1CCN(CCCCOc2ccc3ccc(=O)oc3c2)CC1`, the inhibition constant Ki in data set [1] is 1680 nM; in data set [2] it was 569 nM; in data set [3], 876 nM.
The like results for `Cc1cc(=O)oc2cc(OCCCCN3CCC(c4nc5ccccc5s4)CC3)ccc12` were, in that order, 215 nM, 242 nM and 146 nM.
For `Cc1cc(=O)oc2cc(OCCCCN3CCN(c4cccc(C(F)(F)F)c4)CC3)ccc12`, in that order: 157 nM, 143 nM and 15.6 nM.
For `Cc1c(C)c2ccc(OCCCCN3CCC(c4noc5cc(F)ccc45)CC3)c(C)c2oc1=O`, in that order: 607 nM, 10.7 nM and 3070 nM.
As for `CC(C)c1cc(=O)oc2cc(OCCCCN3CCC(c4noc5cc(F)ccc45)CC3)ccc12`, the inhibition constant (Ki) is > 10000 nM in data set [1], 2350 nM in data set [2] and > 10000 nM in [3].
As for `Cc1cc(=O)oc2cc(OCCCCN3CCN(c4cccc(Cl)c4Cl)CC3)ccc12`, the Ki is 101 nM in data set [1], 1870 nM in [2] and 11.5 nM in data set [3].
Turning to `COc1ccccc1N1CCN(CCCCOc2ccc3c(C)c(C)c(=O)oc3c2)CC1`, the inhibition constant (Ki) in data set [1] is 58.9 nM; in [2], > 10000 nM; in data set [3], > 10000 nM.
With `Cc1cccc(N2CCN(CCCCOc3ccc4c(C)cc(=O)oc4c3)CC2)c1C`, the inhibition constant Ki in [1] stood at 259 nM; in data set [2], 1390 nM; in [3], 48.4 nM.
For `O=c1cc(-c2ccc(F)cc2)c2ccc(OCCCCN3CCC(c4noc5cc(F)ccc45)CC3)cc2o1`, in that order: > 10000 nM, 632 nM and > 10000 nM.
For `Cc1cc(=O)oc2cc(OCCCCN3CCN(c4ccccn4)CC3)ccc12`, in that order: 897 nM, 2820 nM and 102 nM.
With `OCCN1CCN(CCCN2c3ccccc3Sc3ccc(Cl)cc32)CC1` [PERPHENAZINE], the inhibition in [10] was determined as 100%. In data set [11], the IC50 worked out at 0.3 nM.
`Cc1ccc(S(=O)(=O)N2CCN(CCCCOc3ccc4c(C)cc(=O)oc4c3)CC2)cc1`: the values for the inhibitory constant (Ki) in data set [1], in [2] and in [3] were > 10000 nM, 1590 nM and 1200 nM, respectively.
For `Cc1cc(=O)oc2cc(OCCCCN3CCC(c4noc5cc(F)ccc45)CC3)c(Cl)cc12`, in that order: 10.6 nM, > 10000 nM and 17.2 nM.
The like results for `Cc1cc(=O)oc2cc(OCC(O)CN3CCC(c4noc5cc(F)ccc45)CC3)ccc12` (configuration not stated) were, in that order, 453 nM, > 10000 nM and 517 nM.
The like results for `COc1cccc(-c2cc(=O)oc3cc(OCCCCN4CCC(c5noc6cc(F)ccc56)CC4)ccc23)c1` were, in that order, > 10000 nM, 787 nM and > 10000 nM.
As to `O=c1cc(-c2cccs2)c2ccc(OCCCCN3CCC(c4noc5cc(F)ccc45)CC3)cc2o1`, the Ki in data set [1] was > 10000 nM; in data set [2] it was 2350 nM; in data set [3] it was > 10000 nM.
As for `COc1ccccc1N1CCN(CCCCOc2ccc3c(C(F)(F)F)cc(=O)oc3c2)CC1`, the values for the Ki in [1], in [2] and in data set [3] were 810 nM, > 10000 nM and 41.8 nM, respectively.
The compound `NCCc1ccc(O)c(O)c1` gave an Activity in [12] of 101%.
In the case of `COc1cccc(N2CCN(CCCCOc3ccc4c(C)cc(=O)oc4c3)CC2)c1`, the results for the Ki in data set [1], in data set [2] and in data set [3] were 469 nM, 156 nM and 89.2 nM, respectively.
With `Cc1cc(=O)oc2cc(OCCCCN3CCC(C(=O)c4ccc(F)cc4)CC3)ccc12`, the Ki in data set [1] is 257 nM; in [2], 182 nM; in data set [3], 165 nM.
The like results for `O=c1ccc2ccc(OCCCCN3CCC(c4noc5cc(F)ccc45)CC3)cc2o1` were, in that order, 1460 nM, 44.9 nM and 553 nM.
As for `CN1CCN(C2=Nc3cc(Cl)ccc3Nc3ccccc32)CC1` [CLOZAPINE], the ED50 in data set [5] turned out to be 92.73 mg/kg.
For `O=C(c1ccc(F)cc1)C1CCN(CCn2c(=O)[nH]c3ccccc3c2=O)CC1`, in data set [13], the inhibition stood at 99.9%.
In the case of `COc1ccccc1N1CCN(CCCCOc2ccc3c(C)cc(=O)oc3c2Cl)CC1`, the inhibitory constant (Ki) in data set [1] amounted to 588 nM; in data set [2] it was 119 nM; in data set [3] it was 151 nM.
